Like-named read-outs stand apart in the source and are kept apart here.
Legend:
[1] = molecular target: T1, MCR (MCR-I) (Methanothermobacter marburgensis, UniProt P11558+P11560+P11562); assay type: biochemical, M. marburgensis; conditions: for Methane reduction: 0.1 µM 3-NOP vs no inhibitor
[2] = molecular target: T1, MCR (MCR-I); assay type: biochemical, M. marburgensis; conditions: 15 min at room temperature
[3] = system: Methanobacterium bryantii; assay: Growth/methane production of methanogen cultures; assay type: cell-based; conditions: after 2 days, maintained over 12 days
Method: (§1) The methanogens outlined in table 3 were grown in 5 mL of the respective culture medium at 37°C in 15-mL Hungate tubes sealed with butyl rubber septum and aluminum seals. The 8 mL gas phase was 80% H2/20% CO2 at 2 x 10^5 Pa pressure. In the case of M. stadtmanae and M. barkeri H2 and methanol (100 mM) was the energy source. Methanogens growth was followed by CH4 production using a flame ionization-detector GC (0.5 ml of gas from headspace, manual injection in the GC (HP Hewlett 5890, Packard Series II, Waldbronn, Germany) using a 1 mL Sample-Lock® syringe (Hamilton, Nevada, USA). The concentration of CH4 was determined using a standard curve generated by injecting different volumes of 99.9 % pure CH4 prior to and after the injection of samples. Three consecutive 5 mL batches of incubations were conducted. In each batch the following treatments were used in triplicate: (i) blanks, only media; (ii) controls, cultures in the absence of inhibitor; (iii) 3-NOP added to a final concentration of 0.5 µM, 5 µM, 50 µM, 100 µM, 250 µM and 500 µM. 3-NOP was added on day 2 after culture inoculation with 0.5 mL of an actively growing culture. The growth was measured over 12 days every 2 days coinciding with new pressurization of headspace to 2 bar with 80:20 H2:CO2 gas mixture. […] Table 3: Methanogens

[4] = system: Methanobrevibacter millerae; assay: Growth/methane production of methanogen cultures; assay type: cell-based; conditions: after 2 days, maintained over 12 days
Method: as §1

[5] = system: Methanobrevibacter smithii; assay: Growth/methane production of methanogen cultures; assay type: cell-based; conditions: after 2 days, maintained over 12 days
Method: as §1

[6] = system: Methanomicrobium mobile; assay: Growth/methane production of methanogen cultures; assay type: cell-based; conditions: after 2 days, maintained over 12 days
Method: as §1

[7] = system: Methanosarcina barkeri; assay: Growth/methane production of methanogen cultures; assay type: cell-based; conditions: H2 and methanol (100 mM), after 2 days, maintained over 12 days
Method: as §1

[8] = system: Methanosphaera stadtmanae; assay: Growth/methane production of methanogen cultures; assay type: cell-based; conditions: H2 and methanol (100 mM), after 2 days, maintained over 12 days
Method: as §1

[9] = system: Methanothermobacter wolfeii; assay: Growth/methane production of methanogen cultures; assay type: cell-based; conditions: after 2 days, maintained over 12 days
Method: as §1

T1 sequence (P11558 2-550 limits assumed): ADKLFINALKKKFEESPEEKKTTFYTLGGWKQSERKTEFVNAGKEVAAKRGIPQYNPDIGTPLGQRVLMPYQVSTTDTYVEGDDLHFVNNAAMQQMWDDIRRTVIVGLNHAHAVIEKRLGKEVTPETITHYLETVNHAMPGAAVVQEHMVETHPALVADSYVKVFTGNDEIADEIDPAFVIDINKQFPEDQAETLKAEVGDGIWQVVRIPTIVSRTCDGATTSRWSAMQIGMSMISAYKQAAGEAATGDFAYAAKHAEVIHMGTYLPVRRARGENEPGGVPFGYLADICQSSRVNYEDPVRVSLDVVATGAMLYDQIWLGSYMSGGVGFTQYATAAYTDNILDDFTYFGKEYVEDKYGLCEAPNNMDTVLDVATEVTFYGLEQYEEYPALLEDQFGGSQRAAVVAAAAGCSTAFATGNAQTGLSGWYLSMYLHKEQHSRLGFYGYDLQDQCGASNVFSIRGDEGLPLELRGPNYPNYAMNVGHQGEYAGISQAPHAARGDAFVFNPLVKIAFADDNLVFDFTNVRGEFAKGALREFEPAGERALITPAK
T1 sequence (P11560 2-443 limits assumed): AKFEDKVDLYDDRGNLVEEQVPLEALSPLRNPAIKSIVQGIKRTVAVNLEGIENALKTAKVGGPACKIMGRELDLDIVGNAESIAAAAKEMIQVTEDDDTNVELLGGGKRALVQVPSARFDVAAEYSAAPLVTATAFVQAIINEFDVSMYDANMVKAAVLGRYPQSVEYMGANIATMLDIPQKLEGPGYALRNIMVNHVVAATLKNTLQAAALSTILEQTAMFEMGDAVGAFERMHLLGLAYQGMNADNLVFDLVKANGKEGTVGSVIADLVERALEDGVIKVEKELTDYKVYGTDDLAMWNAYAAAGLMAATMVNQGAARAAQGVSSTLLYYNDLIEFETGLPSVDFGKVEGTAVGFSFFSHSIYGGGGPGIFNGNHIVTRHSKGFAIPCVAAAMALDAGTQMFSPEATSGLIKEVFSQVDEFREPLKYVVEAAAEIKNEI
T1 sequence (P11562 2-249 limits assumed): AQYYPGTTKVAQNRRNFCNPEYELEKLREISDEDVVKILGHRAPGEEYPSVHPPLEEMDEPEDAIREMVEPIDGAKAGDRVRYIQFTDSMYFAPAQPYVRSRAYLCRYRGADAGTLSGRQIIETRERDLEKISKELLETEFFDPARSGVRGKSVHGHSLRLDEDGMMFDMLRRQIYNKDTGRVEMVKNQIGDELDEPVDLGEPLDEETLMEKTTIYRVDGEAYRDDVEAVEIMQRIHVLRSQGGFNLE

O=[N+]([O-])OCCCO [3-NOP, 3-Nitrooxypropanol]
reduces the methane concentration and thus the MCR activity ([1]; 0.1 µM 3-NOP): about 50% | Methane reduction ([1]; 3min): -28% | Methane reduction ([1]; 6min): -38% | Methane reduction ([1]; 9min): -47% | Methane concentration ([1]; 0.1 µM 3-NOP, 3min, no inhibitor 0.095): 0.068 µM | Methane concentration ([1]; 0.1 µM 3-NOP, 6min, no inhibitor 0.132): 0.082 µM | Methane concentration ([1]; 0.1 µM 3-NOP, 9min, no inhibitor 0.163): 0.086 µM | MCR activity was reduced ([2]; 10 µM of 3-NOP): 50% | inhibition of the enzyme ([2]; > 30 µM of 3-NOP): almost complete inhibition | lowest concentration of 3-NOP able to significantly decrease the growth/ methane production (>50%) [3]: 1 µM | lowest concentration of 3-NOP able to significantly decrease the growth/ methane production (>50%) [4]: 2.5 µM | lowest concentration of 3-NOP able to significantly decrease the growth/ methane production (>50%) [5]: 2.5 µM | lowest concentration of 3-NOP able to significantly decrease the growth/ methane production (>50%) [6]: 50 µM | lowest concentration of 3-NOP able to significantly decrease the growth/ methane production (>50%) [7]: 50 µM | lowest concentration of 3-NOP able to significantly decrease the growth/ methane production (>50%) [8]: 5 µM | lowest concentration of 3-NOP able to significantly decrease the growth/ methane production (>50%) [9]: < 1 µM
